Data set [1] deals with washed platelets. Nature of the data set: Inhibitory effect on collagen-induced platelet aggregation (antagonistic activity), rat washed platelets. In kind it is cell-based. Particulars: 0.05 h, collagen 4 μg/ml as inducer, light transmission 3 minutes after inducer, read-out: Inhibition for Platelet Aggregation IC50. The method, then: (§1) From the abdominal artery of a male rat (Sprague-Dowley, 8 weeks old) was collected 10 ml of blood with a plastic syringe containing 1.5 ml of ACD (85 mM of sodium citrate, 70 mM of citric acid, 110 mM of glucose) and 20 μg of prostaglandin E1. The blood is placed in a plastic test tube, shaken moderately turning and centrifuged for 10 minutes at 160×g to give platelet rich plasma (PRP). To the prepared PRP was added apyrase (25 μg/ml) and the mixture was layered on 40% bovine serum albumin. The resulting mixture is centrifuged at 1200×g for 25 minutes. The platelet pellets suspended in a small amount of a buffer (137 mM of NaCl, 2.7 mM of KCl, 1.0 mM of MgCl2, 3.8 mM of NaH2 PO4, 3.8 mM of Hepes, 5.6 mM of glucose, 0.035% of bovine serum albumin, pH 7.35) was applied on 10 ml of Sephaose 2B column and eluted with such a buffer to prepare washed platelets.
(§2) The platelet aggregation reaction was measured by an aggregometer (NKK HEMA TRACER 1 MODEL PAT-6A.6M, Niko bioscience). In a measuring cuvette was placed 245 μl of the washed platelets of which platelet concentration was adjusted to 5×10^5 / μl and set in the aggregometer. The adjusted washed platelet was stirred (1000 rpm) at 37° C. and 3.8 μl of 0.1M of CaCl2 was added thereto. One minute later, 0.5 μl of a solution of a test compound in dimethylsulfoxide was added and 2 minutes later, 1 μl of collagen (Collagen reagent Horm®, HORMON-CHEMIE Munchen GMBH, final concentration 4 μg/ml) as an inducer for platelet aggregation was added. The platelet aggregation was monitored with an aggregometer in terms of the increase and decrease in light transmission.
Concentration of 50% inhibition was calculated from the inhibitory rate of aggregation (this correspondes to light transmission of a sample which is measured at 3 minutes after the addition of a platelet aggregating inducer, provided that light transmissions of the washed platelets and the buffer samples are taken as 0% and 100%, respectively.)

A short description of data set [2]: Acute toxicity, intravenous, mice. The note with it: mouse, in vivo, male SclddY mice, tail vein injection in saline, mortality within 24 hours, Probit method. The procedure:
Male SclddY mice (4-weekage, 23-27 g) were used. Each experimental group consists of 5 animals. After injecting the test compound dissolved in saline into a tial vein, the mortality within 24 hours was obtained as an LD50 value by the Probit method.

Data set [3] deals with washed platelets. Kind of data set: Partial agonistic activity (shape change of rat platelets). The data set is classed as cell-based. The note with it: Platelet, decrease in light transmission by test compound itself, 50% of maximal agonistic activity of reference compound, read-out: Activity of Partial Agonist EC50. The procedure:
as §1, §2
The measurement of partial agonistic activity was carried out according to the method shown for platelet aggregation. To the washed platelets was added 0.1M of CaCl2 and one minute later a test compound was added thereto. The decrease in light transmission caused by the test compound itself was measured to estimate the activity.

Experimental findings from patent US5002972A, “Compound and composition of substituted hexenoic acid derivatives useful for treating thromboxane A2 mediated diseases” (Shionogi & Co., Ltd., priority 1989, dated 1991) are described below.

pEC50, pIC50: −log10 of the molar value.

In the case of `O=C(O)CCC/C=C\[C@H]1[C@@H]2CC[C@@H](C2)[C@@H]1NS(=O)(=O)c1ccccc1` [Ia-c, (1R,2R,3S,4S)-sodium (5Z)-6-(3-phenylsulfonylaminobicyclo[2.2.1]hept-2-yl)-5-hexenoate], the pIC50 in data set [1] is 8.22. Further, the LD50 at 24 h in data set [2] is 237 mg/kg. Besides, the pEC50 in data set [3] is under 6.00.
Consider `Cc1ccc(S(=O)(=O)N[C@H]2[C@H]3CC[C@H](C3)[C@@H]2/C=C\CCCC(=O)O)cc1` [Ib-c, (1R,2R,3S,4S)-sodium (5Z)-6-[3-(p-tolylsulfonylamino)bicyclo[2.2.1]hept-2-yl]-5-hexenoate], for which, in data set [1], the pIC50 was 8.22. In data set [3], the pEC50 is under 6.00.
Consider `O=C(O)CCC/C=C\[C@H]1[C@@H]2CC[C@@H](C2)[C@@H]1NS(=O)(=O)c1ccc(O)cc1` [Ic-c, (1R,2R,3S,4S)-sodium (5Z)-6-[3-(4-hydroxyphenylsulfonylamino)bicyclo[2.2.1]hept-2-yl]-5-hexenoate], for which, in data set [1], the pIC50 is 8.22. Moreover, the pEC50 in data set [3] was 6.82.
Take `O=C(O)CCC/C=C\[C@H]1[C@@H]2CC[C@@H](C2)[C@@H]1NS(=O)(=O)c1ccc(Br)cc1` [Id-c, (1R,2R,3S,4S)-sodium (5Z)-6-[3-(4-bromophenylsulfonylamino)bicyclo[2.2.1]hept-2-yl]-5-hexenoate]: in data set [1], the pIC50 was 8.30. For the same compound, in data set [3], the pEC50 was 6.89.
In the case of `O=C(O)CCC/C=C\[C@H]1[C@@H]2CC[C@@H](C2)[C@@H]1NS(=O)(=O)c1ccc(Cl)cc1` [Ie-c, (1R,2R,3S,4S)-sodium (5Z)-6-[3-(4-chlorophenylsulfonylamino)bicyclo[2.2.1]hept-2-yl]-5-hexenoate], the pIC50 in data set [1] is 8.30. In addition, in data set [3], the pEC50 is 6.52.
`O=S(=O)(N[C@H]1[C@H]2CC[C@H](C2)[C@@H]1/C=C\CCCc1nnn[nH]1)c1ccccc1` [If-c, (1R,2R,3S,4S)-3-phenylsulfonylamino-2-[(1Z)-5-(5-tetrazolyl)-1-pentenyl]bicyclo[2.2.1]heptane]: in data set [1], the pIC50 was 8.40. For the same compound, in data set [2], the LD50 at 24 h is 209 mg/kg. The pEC50 in data set [3] is under 6.00.
As to `Cc1ccc(S(=O)(=O)N[C@H]2[C@H]3CC[C@H](C3)[C@@H]2C/C=C\CCCC(=O)O)cc1` [Rf. Compd., reference compound], in data set [1], the pIC50 is 8.70. In data set [3], the pEC50 was 9.00.

What is called pIC50 is −log10 of the IC50, conventionally taken in molar units. What is called LD50 is the dose expected to kill half of the subjects tested. The low end stands for a more toxic substance, the high end for a less toxic substance. What is called pEC50 is the EC50 on a negative log10 scale, so that one unit is a factor of ten.
